# Assay results published in article PMC10882265 (RSC Advances, 2024).
# “And” between values parts separate entries of the source, which are not always exact repeats. Identical values can stand only once.
# Legend:
# human recombinant DPP-4 = human recombinant DPP-4 (Homo sapiens, UniProt P27487); assay: biochemical; settings: Inhibition of DPP-4 IC50, mean of three experiments
# murine model of T2DM = settings: oral, high fat diet + streptozotocin T2DM ref 35; cited from earlier work
# Sequence of human recombinant DPP-4 (P27487 whole entry): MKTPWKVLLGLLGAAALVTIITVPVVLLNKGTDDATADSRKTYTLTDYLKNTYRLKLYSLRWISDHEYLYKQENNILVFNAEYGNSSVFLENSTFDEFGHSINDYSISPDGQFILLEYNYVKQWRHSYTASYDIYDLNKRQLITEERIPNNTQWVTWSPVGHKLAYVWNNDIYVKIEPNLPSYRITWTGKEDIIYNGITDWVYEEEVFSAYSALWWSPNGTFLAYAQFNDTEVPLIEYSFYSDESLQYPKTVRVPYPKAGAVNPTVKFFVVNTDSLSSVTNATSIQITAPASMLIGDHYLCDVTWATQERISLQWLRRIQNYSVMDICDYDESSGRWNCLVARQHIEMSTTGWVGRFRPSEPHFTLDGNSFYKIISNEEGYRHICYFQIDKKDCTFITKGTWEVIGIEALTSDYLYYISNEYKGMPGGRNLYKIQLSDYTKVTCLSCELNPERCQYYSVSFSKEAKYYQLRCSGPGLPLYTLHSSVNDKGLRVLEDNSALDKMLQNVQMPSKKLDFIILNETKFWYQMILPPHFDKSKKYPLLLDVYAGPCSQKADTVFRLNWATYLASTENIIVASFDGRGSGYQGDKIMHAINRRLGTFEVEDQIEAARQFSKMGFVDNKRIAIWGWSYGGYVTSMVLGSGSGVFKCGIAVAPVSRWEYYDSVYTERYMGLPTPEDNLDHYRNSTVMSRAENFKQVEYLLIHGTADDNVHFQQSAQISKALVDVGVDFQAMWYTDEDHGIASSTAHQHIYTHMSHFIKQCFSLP
IC50 (human recombinant DPP-4),Compound,antihyperglycemic effect (murine model of T2DM),effect on cardiac and renal dysfunction (murine model of T2DM)
2900 nM and 2930 nM,"NC(CC(=O)NNCc1ccc(F)c(F)c1)Cc1cc(F)c(F)cc1F (stereo not shown) [LASSBio-2127 (13), 3-amino-N'-(3,4-difluorobenzyl)-4-(2,4,5-trifluorophenyl)butanehydrazide]",–,–
44700 nM,"N[C@H](CC(=O)N/N=C/c1ccc(F)c(F)c1)Cc1cc(F)c(F)cc1F [LASSBio-2130 (6-S), (S,E)-3-amino-N'-(3,4-difluorobenzylidene)-4-(2,4,5-trifluorophenyl)butanehydrazide]",–,–
–,"N[C@@H](CC(=O)N1CCn2c(nnc2C(F)(F)F)C1)Cc1cc(F)c(F)cc1F [Sitagliptin (1), sitagliptin]",showed antihyperglycemic effects,improved cardiac and renal dysfunction
